Experimental data as given in PMC6155332, “Antimalarials with Benzothiophene Moieties as Aminoquinoline Partners” (Molecules : A Journal of Synthetic Chemistry and Natural …, 2017).
“And” between values parts separate entries of the source, which are not always exact repeats. Equal values may be shown once. Read-outs that look alike come from different tables or passages of the source.

Assays:
[1] = test system: P. falciparum D6 (CQ susceptible (CQS) strain); set-up: method as in PMID 26640981, PMID 25801154; settings: previously reported compounds; ref [27],[28]; cited from earlier work
P. berghei (ANKA) = assay: Modified Thompson test, P. berghei mouse efficacy; type: in vivo, Plasmodium berghei; settings: for Parasitemia D25: day 25; for Parasitemia D21: day 21; for Mean Survival Time (MST, Days) / Mice Alive on Day 31 / Mice Dead/Day Died: infected mice
Method: In a separate host toxicity study, benzothiophene 25 was subjected to in vivo toxicity evaluation. […]
The P. berghei (ANKA) mouse efficacy tests were conducted using a modified version of the Thompson test. Groups of five mice were inoculated intraperitoneally with erythrocytes infected with P. berghei on day 0. Drugs were suspended in 0.5% hydroxyethylcellulose-0.1% Tween 80 and administered orally once a day beginning on day 3 post infection. […] Cure was defined as survival (with no parasitemia) until day 31 post-treatment. Parasitemia was determined by thin-blood Giemsa-stained smears prepared from mice tail blood of each animal on days 0, 3, 6, 10, 13, 17, 20, 24, 27, and 31 (postinfection). The slides were examined under a light microscope.

[2] = test system: P. falciparum W2 (CQ resistant (CQR) strain); assay: microbe, parasite or virus in culture; type: cell-based, Plasmodium falciparum; settings: for RI W2/D6 (resistance index): IC50 W2 / IC50 D6; for IC50: Plasmodium falciparum, W2, read-out: In Vitro Antimalarial Activity (P. falciparum, IC50, nM) W2
healthy mice = assay: Host toxicity study in healthy mice; type: in vivo; settings: 160 mg/kg/day × 3 days; for Mice survived in host toxicity study: groups of 5 healthy mice; for Host toxicity (toxic / non-toxic): healthy mice, orally
Method: In a separate host toxicity study, groups of five healthy mice were administered 160 mg/kg/day × 3 days of the investigational compounds and individually monitored for behavior and appearance two times a day for 31 days. No toxicity was defined as survival past day 31 with no overt clinical manifestations of toxicity (changes in behavior and appearance).

[3] = test system: P. falciparum D6 (CQ susceptible (CQS) strain); assay: Malaria SYBR Green Fluorescence Assay, D6 strain; type: cell-based; settings: Plasmodium falciparum; CQ susceptible African D6 clone; read-out: In Vitro Antimalarial Activity (P. falciparum, IC50, nM) D6
[4] = test system: HepG2 (hepatocellular carcinoma) cell line; assay: Compound toxicity in HepG2 cell line; type: cell-based, human; settings: for IC50: Homo sapiens, HepG2, hepatocellular carcinoma cells; for SI HepG2/D6 (selectivity index): IC50 HepG2 / IC50 D6
Method: To investigate possible toxicity issues, the synthesized compounds were evaluated in vitro against a human hepatoma cell line (HepG2).
Synthesized aminoquinolines were screened in vitro against P. falciparum strains: CQ and MFQ susceptible strain D6 (clone of Sierra Leone/UNC isolate), CQ resistant but MFQ susceptible strain W2 (clone of Indochina isolate), and CQ and MFQ resistant strain TM91C235 (clone of South East Asian isolate) using the Malaria SYBR Green Fluorescence Assay. Full method details are given in Supplementary Materials I. Assessment of compound toxicity in a HepG2 (hepatocellular carcinoma) cell line followed the protocol described in Ref. [40].

[5] = test system: P. falciparum TM91C235 (Thailand, multidrug-resistant (MDR) strain); assay: Malaria SYBR Green Fluorescence Assay, TM91C235 strain; type: cell-based; settings: Plasmodium falciparum, read-out: In Vitro Antimalarial Activity (P. falciparum, IC50, nM) C235
[6] = test system: P. falciparum W2 (CQ resistant (CQR) strain); set-up: method as in PMID 26640981; settings: previously reported compounds; ref [27]; cited from earlier work
[7] = test system: HepG2 (hepatocellular carcinoma) cell line; set-up: method as in PMID 26640981; settings: previously reported compounds; ref [27]; cited from earlier work
[8] = 40 mg/kg/day p.o., days 3–6 postinfection
[9] = 80 mg/kg/day p.o., days 3–6 postinfection
[10] = 160 mg/kg/day p.o., days 3–5 postinfection, 160 mg/kg/day

Structure (SMILES): Cc1ccc(-c2ccc(CNCCNc3ccnc4cc(Cl)ccc34)s2)cc1 [Compound 6]
- IC50 [1]: 5 nM

Structure (SMILES): CN(CCCCCCCCNc1ccnc2ccccc12)Cc1ccc(-c2ccc(-c3ccc(C#N)cc3)s2)cc1 [Compound 46]
- Parasitemia D25 (P. berghei (ANKA); 40 mg/kg/day p.o. days 3–6): 43%
- Parasitemia D14 (P. berghei (ANKA); 80 mg/kg/day p.o. days 3–6, day 14): 4.7%
- Parasitemia D18 (P. berghei (ANKA); 80 mg/kg/day p.o. days 3–6, day 18): 12%
- Parasitemia D21 (P. berghei (ANKA); 80 mg/kg/day p.o. days 3–6): 35%
- Parasitemia D25 (P. berghei (ANKA); 80 mg/kg/day p.o. days 3–6): 41%
- One mouse survival until day (P. berghei (ANKA); 80 and 40 mg/kg/day × 4 days (both doses)): 25 days
- Mean Survival Time (MST, Days) (P. berghei (ANKA); [8]): 15.8 days
- Mice Alive on Day 31 (P. berghei (ANKA); [8]): 0/5
- Mice Dead/Day Died (P. berghei (ANKA); 40 mg/kg/day p.o., days 3–6 postinfection, 40 mg/kg/day): 1/10 and 2/11 and 1/22 and 1/25
- Mean Survival Time (MST, Days) (P. berghei (ANKA); [9]): 14.4 days
- Mice Alive on Day 31 (P. berghei (ANKA); [9]): 0/5
- Mice Dead/Day Died (P. berghei (ANKA); 80 mg/kg/day p.o., days 3–6 postinfection, 80 mg/kg/day): 1/7 and 1/12 and 1/13 and 1/14 and 1/26
- RI W2/D6 (resistance index) [2]: 0.7
- IC50 [2]: 5 nM
- Mice survived in host toxicity study (healthy mice): 5
- Host toxicity (toxic / non-toxic) (healthy mice): non-toxic
- IC50 [3]: 7 nM
- IC50 [4]: 2570 nM
- SI HepG2/D6 (selectivity index) [4]: 367
- IC50 [5]: 13 nM

Structure (SMILES): Fc1ccc2scc(CNCCCCNc3ccnc4cc(Cl)ccc34)c2c1 [Compound 2]
- IC50 [1]: 10 nM

Structure (SMILES): Clc1ccc2c(NCCCNCc3csc4ccccc34)ccnc2c1 [Compound 53]
- IC50 [6]: 24 nM
- SI(HepG2/D6) [7]: 1111
- Host toxicity (toxic / non-toxic) (healthy mice): toxic
- IC50 [1]: 7 nM

Structure (SMILES): COc1ccc(-c2ccc(CNCCCNc3ccnc4cc(Cl)ccc34)s2)cc1 [Compound 5]
- IC50 [1]: 7 nM

Structure (SMILES): N#Cc1ccc(-c2ccc(CNCCCNc3ccnc4cc(Cl)ccc34)s2)cc1 [Compound 4]
- IC50 [1]: 2 nM

Structure (SMILES): N#Cc1ccc2scc(CNCCCNc3ccnc4cc(Cl)ccc34)c2c1 [Compound 3]
- IC50 [1]: 5 nM

Structure (SMILES): CC(CCCNCc1ccc(-c2csc3ccc(F)cc23)cc1)Nc1ccnc2cc(Cl)ccc12 (centres unmarked) [Compound 25]
- Parasitemia D21 (P. berghei (ANKA); 160 mg/kg/day p.o. days 3–5): 2.7%
- Parasitemia D24 (P. berghei (ANKA); 160 mg/kg/day p.o. days 3–5, day 24): 52%
- Parasitemia D28 (P. berghei (ANKA); 160 mg/kg/day p.o. days 3–5, day 28): 72%
- Parasitemia D31 (P. berghei (ANKA); 160 mg/kg/day p.o. days 3–5, day 31 (end of study)): 79%
- Mean Survival Time (MST, Days) (P. berghei (ANKA); 160 mg/kg/day p.o., days 3–5 postinfection): 20.8 days
- Mice Alive on Day 31 (P. berghei (ANKA); [10]): only one surviving 31 days but with parasitemia and 1/4
- Mice Dead/Day Died (P. berghei (ANKA); [10]): 2/17 and 1/18
- RI W2/D6 (resistance index) [2]: 0.2
- IC50 [2]: 12 nM
- Mice survived in host toxicity study (healthy mice): 5
- Host toxicity (toxic / non-toxic) (healthy mice): non-toxic
- IC50 [3]: 71 nM
- IC50 [4]: 2090 nM
- SI HepG2/D6 (selectivity index) [4]: 29
- IC50 [5]: 121 nM
